Patent US9309224B2 (Deciphera Pharmaceuticals, LLC, priority 2013, dated 2016)

What was measured:
osteoclast precursors = assay: Osteoclast tartrate-resistant acid phosphatase assay; type: cell-based; conditions: 7-14 days, RANKL and M-CSF
Experimental: Diluted compound was transferred to a 384-well black clear bottom plate. Two-thousand five hundred osteoclast precursors (Lonza, Walkersville, Md.) were added per well in growth media containing Receptor Activator of Nuclear Factor Kappa-beta ligand (RANKL) and M-CSF (R&D Systems, Minneapolis, Minn.). Plates were incubated for 7-14 days at 37 degrees Celsius, 5% CO2, and 95% humidity to allow differentiation of osteoclast precursors. […] Tartrate-resistant acid phosphatase activity in the supernatant samples was determined using an acid phosphatase assay kit (Sigma, St. Louis, Mo.). Absorbance was measured at 550 nm using a plate reader. Data was analyzed using Prism software (Graphpad, San Diego, Calif.) to calculate IC50 values.

[1] = biological target: T1, unphosphorylated c-KIT kinase (uKIT, Seq. ID no. 2) (Homo sapiens, UniProt P10721); assay: uKit kinase assay (pyruvate kinase/lactate dehydrogenase coupled); type: biochemical; conditions: ATP 2000 μM
T1 construct: uKit with N-terminal GST fusion used for
T1 sequence (P10721 with tags, fused parts or gaps): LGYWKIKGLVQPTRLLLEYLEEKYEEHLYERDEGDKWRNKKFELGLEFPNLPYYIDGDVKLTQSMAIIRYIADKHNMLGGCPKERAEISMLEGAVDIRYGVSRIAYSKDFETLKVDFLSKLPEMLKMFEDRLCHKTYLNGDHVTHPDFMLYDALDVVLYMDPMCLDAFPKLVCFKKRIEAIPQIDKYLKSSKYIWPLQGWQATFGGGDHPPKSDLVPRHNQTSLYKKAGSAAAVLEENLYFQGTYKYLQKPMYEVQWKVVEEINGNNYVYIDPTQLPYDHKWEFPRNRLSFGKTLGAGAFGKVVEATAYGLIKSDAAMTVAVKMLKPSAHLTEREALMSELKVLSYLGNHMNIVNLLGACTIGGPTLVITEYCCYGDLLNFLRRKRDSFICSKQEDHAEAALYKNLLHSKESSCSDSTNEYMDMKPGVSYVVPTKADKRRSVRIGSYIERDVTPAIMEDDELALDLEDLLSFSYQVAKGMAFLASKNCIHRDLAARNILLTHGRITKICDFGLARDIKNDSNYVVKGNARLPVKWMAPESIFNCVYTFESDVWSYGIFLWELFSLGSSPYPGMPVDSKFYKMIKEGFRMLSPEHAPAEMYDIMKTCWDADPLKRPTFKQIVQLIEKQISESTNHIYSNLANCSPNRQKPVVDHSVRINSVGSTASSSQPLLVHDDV
Experimental: In this assay, the oxidation of NADH (thus the decrease at A340 nm) was continuously monitored spectrophometrically. […] The inhibition reaction was started by mixing serial diluted test compound with the above reaction mixture. The absorption at 340 nm was monitored continuously for 4 hours at 30° C. on Synergy 2 plate reader (BioTech).

[2] = biological target: T2, unphosphorylated c-FMS kinase (uFMS, Seq. ID no. 1) (Homo sapiens, UniProt P07333); assay: uFMS kinase assay (pyruvate kinase/lactate dehydrogenase coupled); type: biochemical; conditions: ATP 500 μM
T2 construct: purchased Millipore
T2 sequence (P07333 538-972): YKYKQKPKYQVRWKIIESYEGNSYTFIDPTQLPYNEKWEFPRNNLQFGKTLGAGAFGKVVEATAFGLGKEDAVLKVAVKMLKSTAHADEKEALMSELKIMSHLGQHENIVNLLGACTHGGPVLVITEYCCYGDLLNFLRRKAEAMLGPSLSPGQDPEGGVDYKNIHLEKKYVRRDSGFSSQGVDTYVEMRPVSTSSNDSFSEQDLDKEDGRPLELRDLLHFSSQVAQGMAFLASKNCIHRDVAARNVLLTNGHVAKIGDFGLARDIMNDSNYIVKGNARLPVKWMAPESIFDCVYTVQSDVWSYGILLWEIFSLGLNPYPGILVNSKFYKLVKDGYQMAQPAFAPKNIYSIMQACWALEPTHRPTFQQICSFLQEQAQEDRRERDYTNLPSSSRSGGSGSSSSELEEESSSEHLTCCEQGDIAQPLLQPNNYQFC

M-NFS-60 cells = assay: M-NFS-60 cell proliferation assay; type: cell-based; conditions: 67 h incubation, resazurin
Experimental: M-NFS-60 Cell Proliferation Assay A serial dilution of test compound was dispensed into a 384-well black clear bottom plate (Corning, Corning, N.Y.). Two thousand five hundred cells were added per well in 50 μL complete growth medium. […] IC50 values were calculated from a series of percent inhibition values determined at a range of inhibitor concentrations using software routines as implemented in the GraphPad Prism software package.

[3] = biological target: T3, phospho-FMS in THP-1 cells (Homo sapiens, UniProt P07333); assay: Phospho-FMS ELISA assay in THP-1 cells; type: cell-based; conditions: 4 hours compound, M-CSF stimulated; read-out: pFMS inhibition in THP-1 cells
T3 construct: endogenous in cells; host or cells: THP-1 (ATCC TIB-202)
T3 sequence (P07333 20-972): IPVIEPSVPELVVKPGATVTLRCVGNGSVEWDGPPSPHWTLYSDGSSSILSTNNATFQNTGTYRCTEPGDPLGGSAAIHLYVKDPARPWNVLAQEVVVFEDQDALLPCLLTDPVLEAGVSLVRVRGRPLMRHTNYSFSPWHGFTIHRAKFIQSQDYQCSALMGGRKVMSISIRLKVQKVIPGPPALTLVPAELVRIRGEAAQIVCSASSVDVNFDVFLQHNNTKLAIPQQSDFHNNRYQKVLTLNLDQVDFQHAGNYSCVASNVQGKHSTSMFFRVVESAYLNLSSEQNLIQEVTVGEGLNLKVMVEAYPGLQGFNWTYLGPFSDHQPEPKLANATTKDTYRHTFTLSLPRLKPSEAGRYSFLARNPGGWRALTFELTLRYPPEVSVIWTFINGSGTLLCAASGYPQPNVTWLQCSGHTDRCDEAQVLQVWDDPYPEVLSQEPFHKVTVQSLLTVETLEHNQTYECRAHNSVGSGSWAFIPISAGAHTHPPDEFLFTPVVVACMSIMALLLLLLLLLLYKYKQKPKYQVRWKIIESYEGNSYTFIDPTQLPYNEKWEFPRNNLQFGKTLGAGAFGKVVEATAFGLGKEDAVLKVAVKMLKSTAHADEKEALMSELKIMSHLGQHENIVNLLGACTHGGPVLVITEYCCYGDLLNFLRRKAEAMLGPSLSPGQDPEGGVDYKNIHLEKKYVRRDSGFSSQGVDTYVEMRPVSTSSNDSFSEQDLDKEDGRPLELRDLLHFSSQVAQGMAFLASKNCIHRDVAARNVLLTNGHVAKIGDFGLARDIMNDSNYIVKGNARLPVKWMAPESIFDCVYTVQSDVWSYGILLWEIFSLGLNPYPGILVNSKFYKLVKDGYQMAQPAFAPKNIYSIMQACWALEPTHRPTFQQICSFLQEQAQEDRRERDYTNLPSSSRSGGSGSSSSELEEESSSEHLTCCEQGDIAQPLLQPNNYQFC
Experimental: In a separate 96 well black clear bottom plate, one hundred and fifty thousand THP-1 cells were added per well in 100 μL in assay medium. Fifty microliters of diluted compound was then added to the cells. […] Lysates were prepared and used to perform the phospho-FMS ELISA as described by the manufacturer (catalog #DYC3268, R & D Systems, Minneapolis, Minn.). GraphPad Prism was used to calculate IC50 values obtained from data generated from the ELISA assay.

[4] = biological target: T4, unphosphorylated PDGFRβ kinase (uPDGFRβ, Seq. ID No. 3) (Homo sapiens, UniProt P09619); assay: Unphosphorylated PDGFRβ kinase assay (pyruvate kinase/lactate dehydrogenase coupled); type: biochemical; conditions: ATP 500 μM
T4 construct: purchased DeCode
T4 sequence (P09619 557-1105): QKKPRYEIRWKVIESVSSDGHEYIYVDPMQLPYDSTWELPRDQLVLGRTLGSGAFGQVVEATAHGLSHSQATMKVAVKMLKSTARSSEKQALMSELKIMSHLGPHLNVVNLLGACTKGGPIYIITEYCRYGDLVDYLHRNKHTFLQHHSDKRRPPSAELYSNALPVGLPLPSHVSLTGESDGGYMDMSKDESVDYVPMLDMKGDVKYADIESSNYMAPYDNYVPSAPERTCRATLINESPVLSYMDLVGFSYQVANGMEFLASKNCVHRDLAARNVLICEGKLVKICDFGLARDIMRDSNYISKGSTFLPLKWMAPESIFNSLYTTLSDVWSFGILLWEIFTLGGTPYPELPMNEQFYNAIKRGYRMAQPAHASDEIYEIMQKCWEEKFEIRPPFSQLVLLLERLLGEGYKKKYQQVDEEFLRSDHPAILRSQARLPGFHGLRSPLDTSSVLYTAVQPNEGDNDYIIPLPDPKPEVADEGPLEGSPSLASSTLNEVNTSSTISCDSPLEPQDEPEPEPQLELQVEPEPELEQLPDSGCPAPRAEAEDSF
Description: Unphosyhorylated PDGFRβ (uPDGFRβkinase (Seq. ID No. 3) assay

SMILES	IC50 (osteoclast precursors; Osteoclast) [nM]	IC50 [1] [nM]	IC50 [2] [nM]	IC50 [3] [nM]	IC50 [4] [nM]	IC50 (osteoclast precursors) [nM]	IC50 (M-NFS-60 cells) [nM]
CC(=O)Nc1cc(Oc2ccc(NC(=O)NC(=O)C3CCOCC3)nc2C)ccn1 [Example 7, N-((5-((2-acetamidopyridin-4-yl)oxy)-6-methylpyridin-2-yl)carbamoyl)tetrahydro-2H-pyran-4-carboxamide]	10 to 100	> 1000	10 to 100	< 10	100 to 1000	–	10 to 100
CN(C)C1CC(C(=O)Nc2cc(Oc3ccc(NC(=O)NC(=O)C(C)(C)C)nc3)ccn2)C1 (centres unmarked) [Example 61, (1r,3r)-3-(dimethylamino)-N-(4-((6-(3-pivaloylureido)pyridin-3-yl)oxy)pyridin-2-yl)cyclobutanecarboxamide]	–	> 1000	10 to 100	–	100 to 1000	10 to 100	100 to 1000
CC(=O)Nc1cc(Oc2ccc(NC(=O)NC(=O)C3CCOC3)nc2)ccn1 (centres unmarked) [Example 22, N-((5-((2-acetamidopyridin-4-yl)oxy)pyridin-2-yl)carbamoyl)tetrahydrofuran-3-carboxamide]	10 to 100	> 1000	10 to 100	–	> 1000	–	100 to 1000
CNC(=O)c1cc(Oc2ccc(NC(=O)NC(=O)C3(C(F)(F)F)CCC3)nc2)ccn1 [Example 72, N-methyl-4-((6-(3-(1-(trifluoromethyl)cyclobutanecarbonyl)ureido)pyridin-3-yl)oxy)picolinamide]	10 to 100	> 1000	10 to 100	–	> 1000	–	100 to 1000
CC(C)C(=O)NC(=O)Nc1ccc(Oc2ccnc(NC(=O)C3CCN(C)CC3)c2)cn1 [Example 57, N-(4-((6-(3-isobutyrylureido)pyridin-3-yl)oxy)pyridin-2-yl)-1-methylpiperidine-4-carboxamide]	100 to 1000	> 1000	100 to 1000	–	> 1000	–	> 1000
CCC(=O)Nc1cc(Oc2ccc(NC(=O)NC(=O)C3(OC)CC3)nc2)ccn1 [Example 39, 1-methoxy-N-((5-((2-propionamidopyridin-4-yl)oxy)pyridin-2-yl)carbamoyl)cyclopropanecarboxamide]	10 to 100	> 1000	10 to 100	–	> 1000	–	10 to 100
CC(C)(C)C(=O)NC(=O)Nc1ccc(Oc2ccnc(NC(=O)CN3CCCC3)c2)cn1 [Example 53, N-((5-((2-(2-(pyrrolidin-1-yl)acetamido)pyridin-4-yl)oxy)pyridin-2-yl)carbamoyl)pivalamide]	10 to 100	> 1000	10 to 100	–	> 1000	–	> 1000
CC(=O)Nc1cc(Oc2ccc(NC(=O)NC(=O)C(C)C)nc2)ccn1 [Example 15, N-((5-((2-acetamidopyridin-4-yl)oxy)pyridin-2-yl)carbamoyl)isobutyramide]	10 to 100	> 1000	10 to 100	–	100 to 1000	–	10 to 100

Second part, led by results:

IC50 (osteoclast precursors; Osteoclast) [nM]	IC50 [1] [nM]	IC50 [2] [nM]	IC50 [3] [nM]	IC50 [4] [nM]	IC50 (osteoclast precursors) [nM]	SMILES	IC50 (M-NFS-60 cells) [nM]
< 10	> 1000	< 10	< 10	> 1000	–	Cc1nc(NC(=O)NC(=O)C(C)(C)C)ccc1Oc1ccnc(NC(=O)N2CCN(C)CC2)c1 [Example 69, 4-methyl-N-(4-((2-methyl-6-(3-pivaloylureido)pyridin-3-yl)oxy)pyridin-2-yl)piperazine-1-carboxamide]	< 10
< 10	> 1000	10 to 100	< 10	100 to 1000	–	CC(=O)Nc1cc(Oc2ccc(NC(=O)NC(=O)C3(C(F)(F)F)CCC3)nc2)ccn1 [Example 25, N-((5-((2-acetamidopyridin-4-yl)oxy)pyridin-2-yl)carbamoyl)-1-(trifluoromethyl)cyclobutanecarboxamide]	10 to 100
10 to 100	> 1000	< 10	10 to 100	100 to 1000	–	CCC(=O)Nc1cc(Oc2ccc(NC(=O)NC(=O)C(C)(C)C)nc2C)ccn1 [Example 12, N-((6-methyl-5-((2-propionamidopyridin-4-yl)oxy)pyridin-2-yl)carbamoyl)pivalamide]	< 10
10 to 100	> 1000	< 10	< 10	100 to 1000	–	Cc1nc(NC(=O)NC(=O)C(C)(C)C)ccc1Oc1ccnc(NC(=O)C(C)C)c1 [Example 13, N-((5-((2-isobutyramidopyridin-4-yl)oxy)-6-methylpyridin-2-yl)carbamoyl)pivalamide]	< 10
< 10	> 1000	< 10	< 10	10 to 100	–	CN(C)[C@H]1CCN(C(=O)Nc2cc(Oc3ccc(NC(=O)NC(=O)C(C)(C)C)nc3)ccn2)C1 [Example 47, (S)-3-(dimethylamino)-N-(4-((6-(3-pivaloylureido)pyridin-3-yl)oxy)pyridin-2-yl)pyrrolidine-1-carboxamide]	< 10
< 10	100 to 1000	< 10	< 10	10 to 100	–	CC(C)(C)C(=O)NC(=O)Nc1ccc(Oc2ccnc(NC(=O)N3CCC3)c2)cn1 [Example 48, N-(4-((6-(3-pivaloylureido)pyridin-3-yl)oxy)pyridin-2-yl)azetidine-1-carboxamide]	< 10
< 10	10 to 100	< 10	< 10	100 to 1000	–	CC1(C(=O)NC(=O)Nc2ccc(Oc3ccnc(NC(=O)C4CC4)c3)cn2)CC1 [Example 30, N-((5-((2-(cyclopropanecarboxamido)pyridin-4-yl)oxy)pyridin-2-yl)carbamoyl)-1-methylcyclopropanecarboxamide]	10 to 100
< 10	> 1000	10 to 100	10 to 100	100 to 1000	–	COC1(C(=O)NC(=O)Nc2ccc(Oc3ccnc(NC(C)=O)c3)cn2)CC1 [Example 27, N-((5-((2-acetamidopyridin-4-yl)oxy)pyridin-2-yl)carbamoyl)-1-methoxycyclopropanecarboxamide]	10 to 100
< 10	10 to 100	< 10	–	10 to 100	–	CN(C)C(=O)Nc1cc(Oc2ccc(NC(=O)NC(=O)C3(C)CC3)nc2)ccn1 [Example 50, N-((5-((2-(3,3-dimethylureido)pyridin-4-yl)oxy)pyridin-2-yl)carbamoyl)-1-methylcyclopropanecarboxamide]	< 10
< 10	100 to 1000	< 10	–	100 to 1000	–	CC(=O)Nc1cc(Oc2ccc(NC(=O)NC(=O)C3(C)CCC3)nc2C)ccn1 [Example 43, N-((5-((2-acetamidopyridin-4-yl)oxy)-6-methylpyridin-2-yl)carbamoyl)-1-methylcyclobutanecarboxamide]	< 10
< 10	100 to 1000	< 10	–	< 10	–	O=C(NC(=O)C1CCOCC1)Nc1ccc(Oc2ccnc(NC(=O)C3CC3)c2)cn1 [Example 35, N-((5-((2-(cyclopropanecarboxamido)pyridin-4-yl)oxy)pyridin-2-yl)carbamoyl)tetrahydro-2H-pyran-4-carboxamide]	< 10
